Common to all, as to assay type: functional
The test system of one test is SF-539. Description: Cytotoxicity against Homo sapiens (human) SF539 assessed as cell growth at 10 uM after 48 hr by SRB assay relative to control. To be noted: SF-539, 48 h, read-out: Activity.
Another test has as its system SF-268. The experiment in a line: Cytotoxicity against Homo sapiens (human) SF268 assessed as cell growth at 10 uM after 48 hr by SRB assay relative to control. To be noted: SF-268, 48 h, read-out: Activity. A general note: In SRB staining, fixed cells bind dye roughly in proportion to their protein.
For a further test, the system named is SF-295. The experiment in a line: Cytotoxicity against Homo sapiens (human) SF295 assessed as cell growth at 10 uM after 48 hr by SRB assay relative to control. The note with it: SF-295, 48 h, read-out: Activity.
Another test deals with KM12. Description: Cytotoxicity against Homo sapiens (human) KM12 assessed as cell growth at 10 uM after 48 hr by SRB assay relative to control. The note with it: KM12, 48 h, read-out: Activity.
In the next test the test system is HCT-15. Description: Cytotoxicity against Homo sapiens (human) HCT15 assessed as cell growth at 10 uM after 48 hr by SRB assay relative to control. To be noted: HCT-15, 48 h, read-out: Activity.
The test system of another test is HT-29. The experiment in a line: Cytotoxicity against Homo sapiens (human) HT-29 assessed as cell growth at 10 uM after 48 hr by SRB assay relative to control. To be noted: HT-29, 48 h, read-out: Activity.
For a further test, the system named is NCI-H522. The experiment in a line: Cytotoxicity against Homo sapiens (human) NCI-H522 assessed as cell growth at 10 uM after 48 hr by SRB assay relative to control. To be noted: NCI-H522, 48 h, read-out: Activity.
Another test concerns NCI-H23. Description: Cytotoxicity against Homo sapiens (human) NCI-H23 assessed as cell growth at 10 uM after 48 hr by SRB assay relative to control. To be noted: NCI-H23, 48 h, read-out: Activity.
A further test deals with HOP-92. The experiment in a line: Cytotoxicity against Homo sapiens (human) HOP92 assessed as cell growth at 10 uM after 48 hr by SRB assay relative to control. The note with it: HOP-92, 48 h, read-out: Activity.
The subject of a further test is HOP-62. The experiment in a line: Cytotoxicity against Homo sapiens (human) HOP62 assessed as cell growth at 10 uM after 48 hr by SRB assay relative to control. To be noted: HOP-62, 48 h, read-out: Activity.
The subject of the next test is MOLT-4. The experiment in a line: Cytotoxicity against Homo sapiens (human) MOLT4 assessed as cell growth at 10 uM after 48 hr by SRB assay relative to control. To be noted: MOLT-4, 48 h, read-out: Activity.
For the next test, the system named is NCI-H322M. Description: Cytotoxicity against Homo sapiens (human) NCI-H322M assessed as cell growth at 10 uM after 48 hr by SRB assay relative to control. To be noted: read-out: Activity.
The subject of the next test is SK-OV-3. Description: Cytotoxicity against Homo sapiens (human) SKOV3 assessed as cell growth at 10 uM after 48 hr by SRB assay relative to control. To be noted: SK-OV-3, 48 h, read-out: Activity.
In a further test the test system is ACHN. Description: Cytotoxicity against Homo sapiens (human) ACHN assessed as cell growth at 10 uM after 48 hr by SRB assay relative to control. To be noted: read-out: Activity.
The next test has as its system Malme-3M. The experiment in a line: Cytotoxicity against Homo sapiens (human) MALME-3M assessed as cell growth at 10 uM after 48 hr by SRB assay relative to control. To be noted: read-out: Activity.
A further test relates to OVCAR-3. Description: Cytotoxicity against Homo sapiens (human) OVCAR3 assessed as cell growth at 10 uM after 48 hr by SRB assay relative to control. To be noted: OVCAR-3, 48 h, read-out: Activity.
The next test deals with UACC-257. The experiment in a line: Cytotoxicity against Homo sapiens (human) UACC257 assessed as cell growth at 10 uM after 48 hr by SRB assay relative to control. To be noted: UACC-257, 48 h, read-out: Activity.
In the next test the test system is SK-MEL-2. Description: Cytotoxicity against Homo sapiens (human) SK-MEL-2 assessed as cell growth at 10 uM after 48 hr by SRB assay relative to control. To be noted: SK-MEL-2, 48 h, read-out: Activity.
The subject of a further test is MDA-MB-231. Description: Cytotoxicity against Homo sapiens (human) MDA-MB-231 assessed as cell growth at 10 uM after 48 hr by SRB assay relative to control. To be noted: MDA-MB-231, 48 h, read-out: Activity.
Another test has as its system Hs-578T. Description: Cytotoxicity against Homo sapiens (human) Hs 578T assessed as cell growth at 10 uM after 48 hr by SRB assay relative to control. To be noted: read-out: Activity.
The subject of another test is U-251. Description: Cytotoxicity against Homo sapiens (human) U251 assessed as cell growth at 10 uM after 48 hr by SRB assay relative to control. To be noted: U-251, 48 h, read-out: Activity.

As for `CNc1nnc(-c2sc3nnc(-c4ccccc4)c(-c4ccccc4)c3c2O)s1`, the growth at 10 µM in the test on SF-539 was 109%; with SF-268, 106%; in the test with SF-295, 91.7%; with KM12, 126%; in the test with HCT-15 it was 98.9%; in the test with HT-29, 102%. Besides, the growth at 10 µM with NCI-H522 was 111%; in the test on NCI-H23, 115%; in the test with HOP-92 it was 116%; with HOP-62 it was 115%; in the test on MOLT-4, 93.3%; with NCI-H322M, 106%. Besides, the growth at 10 µM in the test on SK-OV-3 came out at 97.7%; with ACHN it was 107%; with Malme-3M, 111%; with OVCAR-3, 116%; in the test on UACC-257 it was 94.5%; in the test on SK-MEL-2, 126%. The growth at 10 µM in the test with MDA-MB-231 came out at 104%; with Hs-578T it was 109%.

Turning to `Oc1c(-c2nnc(SCc3ccccc3)o2)sc2nnc(-c3ccccc3)c(-c3ccccc3)c12`, the growth at 10 µM with SF-539 was 122%; in the test on SF-268 it was 103%; with KM12, 107%; with HCT-15, 93.6%; in the test with HT-29, 89.8%; in the test on NCI-H522 it was 88.5%. The growth at 10 µM in the test on NCI-H23 was determined as 106%; with HOP-92, 52.5%; in the test on HOP-62, 105%; in the test on MOLT-4, 86%; in the test with NCI-H322M, 93.6%; with SK-OV-3 it was 100%. The growth at 10 µM in the test with ACHN is 104%; in the test on OVCAR-3, 126%; in the test on UACC-257, 134%; in the test with SK-MEL-2 it was 93.1%; with U-251, 122%; in the test on MDA-MB-231, 97.9%. For the same compound, the growth at 10 µM in the test with Hs-578T came out at 135%.

On to `Oc1c(-c2nnc(-c3ccccc3)o2)sc2nnc(-c3ccccc3)c(-c3ccccc3)c12`, for which the growth at 10 µM in the test on SF-539 worked out at 68.5%; in the test on SF-268, 85.5%; in the test with SF-295 it was 42.9%; with KM12, 72.3%; with HCT-15 it was 36.6%; in the test on HT-29 it was 103%. In addition, the growth at 10 µM with NCI-H522 came to 97.2%; in the test on NCI-H23, 90.4%; in the test on HOP-92, 81.7%; in the test with HOP-62, 73.7%; with MOLT-4, 47.9%; in the test with NCI-H322M, 42.5%. In addition, the growth at 10 µM is 83% with SK-OV-3; 67% in the test with ACHN; 83.5% with Malme-3M; 72.4% in the test on OVCAR-3; 99.8% in the test with UACC-257; 106% in the test on SK-MEL-2. The growth at 10 µM in the test on MDA-MB-231 was determined as 89.2%; with Hs-578T it was 97%.

Turning to `CCOC(=O)c1c(Nc2ccc(S(=O)(=O)Nc3nccs3)cc2)nnc(-c2ccccc2)c1-c1ccccc1`, the growth at 10 µM came to 117% with SF-539; 112% in the test with SF-268; 101% in the test with SF-295; 114% in the test with KM12; 106% with HCT-15; 116% with HT-29. Further, the growth at 10 µM in the test on NCI-H522 stood at 103%; in the test with HOP-92, 84.3%; in the test on HOP-62, 117%; with MOLT-4, 79.3%; with SK-OV-3, 106%; in the test on ACHN it was 102%. In addition, the growth at 10 µM is 120% in the test with OVCAR-3; 104% with UACC-257; 118% in the test on SK-MEL-2; 98.5% in the test on U-251; 115% in the test with MDA-MB-231; 118% in the test with Hs-578T.

With `CSc1nnc(-c2sc3nnc(-c4ccccc4)c(-c4ccccc4)c3c2O)o1`, the growth at 10 µM is 84.6% with SF-539; 80.6% in the test with SF-268; 40.9% with SF-295; 72.9% in the test on KM12; 54.6% in the test with HCT-15; 107% in the test on HT-29. The growth at 10 µM in the test with NCI-H522 was found to be 96.6%; in the test with HOP-62 it was 71.1%; in the test on MOLT-4, 61.9%; in the test on ACHN, 83.6%; in the test on OVCAR-3, 86.8%; in the test with UACC-257, 91.6%. The growth at 10 µM with SK-MEL-2 turned out to be 102%; in the test on U-251, 62.9%; with MDA-MB-231, 90.4%; in the test with Hs-578T, 98.4%.

As to `Oc1c(-c2n[nH]c(=S)o2)sc2nnc(-c3ccccc3)c(-c3ccccc3)c12`, the growth at 10 µM with SF-539 came to 106%; in the test with SF-268, 102%; with SF-295, 112%; in the test with KM12, 119%; in the test on HCT-15, 103%; in the test with HT-29 it was 114%. The growth at 10 µM turned out to be 102% in the test on NCI-H522; 72.3% in the test on HOP-92; 99.7% in the test on HOP-62; 91% with MOLT-4; 96.4% in the test with SK-OV-3; 92.4% with ACHN. In addition, the growth at 10 µM in the test with OVCAR-3 is 115%; in the test with UACC-257, 97%; in the test on SK-MEL-2 it was 106%; in the test on U-251 it was 106%; in the test on MDA-MB-231 it was 109%; with Hs-578T, 121%.

On to `CC1=NN(C(=O)c2sc3nnc(-c4ccccc4)c(-c4ccccc4)c3c2O)C(=O)C1`, for which the growth at 10 µM with SF-539 stood at 109%; in the test with SF-268 it was 88.3%; in the test on SF-295, 48.8%; in the test with KM12, 71.3%; in the test with HCT-15, 49%; with HT-29, 119%. The growth at 10 µM is 87.4% in the test on NCI-H522; 82.6% with NCI-H23; 69.5% in the test on HOP-92; 82.8% in the test with HOP-62; 67.8% with MOLT-4; 90.6% in the test on SK-OV-3. In addition, the growth at 10 µM worked out at 73.2% in the test on ACHN; 84.7% in the test with OVCAR-3; 86.8% with UACC-257; 110% in the test with SK-MEL-2; 71.7% in the test with U-251; 122% in the test on MDA-MB-231. Further, the growth at 10 µM with Hs-578T stood at 89.6%.

As for `CCOC(=O)c1c(Nc2ccc(S(N)(=O)=O)cc2)nnc(-c2ccccc2)c1-c1ccccc1`, the growth at 10 µM was 108% in the test on SF-539; 105% in the test with SF-268; 88.5% with SF-295; 104% with KM12; 93.4% with HCT-15; 118% in the test on HT-29. Besides, the growth at 10 µM in the test with NCI-H522 turned out to be 111%; with NCI-H23, 115%; with HOP-92 it was 86.5%; with HOP-62, 108%; in the test with MOLT-4 it was 78.2%; in the test with SK-OV-3, 108%. Also, the growth at 10 µM is 97.6% with ACHN; 118% with OVCAR-3; 101% in the test on UACC-257; 123% with SK-MEL-2; 95% in the test on U-251; 108% in the test with MDA-MB-231. In addition, the growth at 10 µM in the test with Hs-578T came to 116%.

For the origin of these results see ChEMBL document CHEMBL3045770, “Design and synthesis of some thieno[2,3-c]pyridazine derivatives of expected anticancer activity” (2013).
